# According to US7517870B2, “Use of compounds that interfere with the hedgehog signaling pathway for the manufacture of a medicament for preventing, inhibiting, and/or reversing ocular diseases related with ocular neovascularization” (Fondazione Telethon, priority 2004, dated 2009):
# Experiments:
# Hh-dependent tumors = conditions: mice that carry Hh-dependent tumors; cited from earlier work
# [1] = system: VEGF protein expression in 293 cells; conditions: HEK-293 cells, desferroxamine 100 μM, Cyclopamine 10 μM, 24 hours
# Description: Five μl of 95% ethanol was added to untreated control.
# Twenty-four hours after induction of hypoxia the supernatant of the 293 cells was removed from wells and a human VEGF ELISA (R & D Systems, Minneapolis, Minn.) was performed on the cell supernatants (FIG. 4) as described in the Quantikine human VEGF ELISA protocol using a dilution of
# the medium of 1:10. ELISA results were read on a Bio-Rad Reader 550 ELISA plate reader (Bio-Rad Laboratories, Inc, CA).
# [2] = system: retinal (ocular) neovascularization; assay: Angiography after fluorescein-dextran perfusion in mouse model of Retinopathy of Prematurity (ROP); format: in vivo, C57/BL6 mice; conditions: ROP mice
# Description: To determine whether inhibition of the Shh signaling pathway by administration of an siRNA targeting Shh is able to reduce retinal (ocular) neovascularization, siRNA targeting Shh is administrated to a mouse model of Retinopathy of Prematurity (ROP).
# C57/BL6 mice are used in this study. Mice from postnatal day 7 (P7) to P12 are exposed to hyperoxia (25% nitrogen, 75% oxygen). At P12 mice return to room air until P17. The group of five mice treated with siRNA targeting Shh receive a daily subretinal injection (1 μl) of 100 mg/ml siRNA targeting Shh dissolved in Phosphate-Buffered Saline (PBS) from P12 to P17, controls receive the vehicle alone.
# [3] = daily subretinal injection (1 μl) of 100 mg/ml siRNA in PBS from P12 to P17, angiography on P17, vs vehicle control eyes
molecule,measurement,setting,value
CC1=C2C[C@H]3[C@@H](CC=C4C[C@@H](O)CC[C@@]43C)[C@@H]2CC[C@]12O[C@@H]1C[C@H](C)CN[C@H]1[C@H]2C [cyclopamine],effect on Hh-dependent tumors,Hh-dependent tumors,growth inhibition and regression of cancerous tissue
same,health of treated animals,Hh-dependent tumors,does not affect the health of treated animals
same,inhibition of hypoxia-induced VEGF expression,[1],Able to Inhibit Hypoxia-Induced VEGF Expression
same,inhibition of ocular neovascularization (neovascular tufts and vessel leakage),"[2]; daily subcutaneous injection of 50 mg/kg from P12 to P17, angiography on P17, vs vehicle control eyes",Robust inhibition of ocular neovascularization
"siRNA targeting Shh: siRNA duplex, SEQ ID NO:16 (sense strand) and SEQ ID NO:15 (antisense strand) (sense AAUUACAACCCCGACAUCAUAUU; antisense UAUGAUGUCGGGGUUGUAAUUUU; listed as RNA, chemistry not given here)",inhibition of ocular neovascularization (neovascular tufts and vessel leakage),[2]; [3],Robust inhibition of ocular neovascularization
"siRNA targeting Smoothened: siRNA duplex, SEQ ID NO:17 (sense strand) and SEQ ID NO:18 (antisense strand) (sense AAGGCCUUCUCUAAGCGGCAUU; antisense UGCCGCUUAGAGAAGGCCUUUU; listed as RNA, chemistry not given here)",inhibition of ocular neovascularization (neovascular tufts and vessel leakage),[2]; [3],Robust inhibition of ocular neovascularization
"siRNA targeting Gli1: siRNA duplex, SEQ ID NO:19 (sense strand) and SEQ ID NO:20 (antisense strand) (sense ACGCCGCAGCAGCAGCUCCUU; antisense GGAGCUGCUGCUGCGGCGUUU; listed as RNA, chemistry not given here)",inhibition of ocular neovascularization (neovascular tufts and vessel leakage),[2]; [3],Robust inhibition of ocular neovascularization
"soluble Hip1: secreted form of Hedgehog interacting protein 1 lacking the transmembrane domain (SEQ ID NO:6), produced in 293 cells (protein, listed as Mus musculus) MLKMLSFKLLLLAVALGFFEGDAKFGERNEGSGARRRRCLNGNPPKRLKRRDRRVMSQLELLSGGEILCGGFYPRVSCCLQSDSPGLGRLENKIFSATNNSECSRLLEEIQCAPCSPHSQSLFYTPERDVLDGDLALPLLCKDYCKEFFYTCRGHIPGLLQTTADEFCFYYARKDAGLCFPDFPRKQVRGPASNYLGQMEDYEKVGGISRKHKHNCLCVQEVMSGLRQPVSAVHSGDGSHRLFILEKEGYVKILTPEGELFKEPYLDIHKLVQSGIKGGDERGLLSLAFHPNYKKNGKLYVSYTTNQERWAIGPHDHILRVVEYTVSRKNPHQVDVRTARVFLEVAELHRKHLGGQLLFGPDGFLYIILGDGMITLDDMEEMDGLSDFTGSVLRLDVDTDMCNVPYSIPRSNPHFNSTNQPPEVFAHGLHDPGRCAVDRHPTDININLTILCSDSNGKNRSSARILQIIKGRGYESEPSLLEFKPFSNGPLVGGFVYRGCQSERLYGSYVFGDRNGNFLTLQQSPVTKQWQEKPLCLGASSSCRGYFSGHILGFGEDELGEVYILSSSKSMTQTHNGKLYKIVDPKRPLMPEECRVTVQPAQPLTSDCSRLCRNGYYTPTGKCCCSPGWEGDFCRIAKCEPACRHGGVCVRPNKCLCKKGYLGPQCEQVDRNVRRVTR",inhibition of ocular neovascularization (neovascular tufts and vessel leakage),"[2]; daily subretinal injection of 50 mg/kg in PBS from P12 to P17, angiography on P17, vs vehicle control eyes",Robust inhibition of ocular neovascularization
